Experimental data taken from ChEMBL document CHEMBL3232945 (Eur J Med Chem, 2014).

What was measured:
Rattus norvegicus [1] = test: Toxicity in anaesthetized-Wistar rat assessed as P-Q ECG interval at 40 mg/kg, ip after 15 mins (reference value: 52.2 +/- 1.158 ms); assay type: organism-based; design: dose 40 mg/kg, route intraperitoneal; conditions: in vivo, 0.25 h
Rattus norvegicus [2] = test: Toxicity in anaesthetized-Wistar rat assessed as P-Q ECG interval at 40 mg/kg, ip after 30 mins (reference value: […] +/- 0.927 ms); assay type: organism-based; design: dose 40 mg/kg, route intraperitoneal; conditions: in vivo, 0.5 h
Rattus norvegicus [3] = test: Antihypertensive activity in Wistar rat assessed as mean arterial pressure at 40 mg/kg, ip after 30 mins (reference value: 194.72 +/- 1.002 mmHg); assay type: functional, Artery; conditions: route intraperitoneal
Rattus norvegicus [4] = test: Toxicity in anaesthetized-Wistar rat assessed as P-Q ECG interval at 40 mg/kg, ip after 45 mins (reference value: 52.5 +/- 0.780 ms); assay type: organism-based; design: dose 40 mg/kg, route intraperitoneal; conditions: in vivo, 0.75 h
Rattus norvegicus [5] = test: Toxicity in anaesthetized-Wistar rat assessed as Q-T ECG interval at 40 mg/kg, ip measured immediately at 0 min (reference value: 78.8 +/- 1.030 ms); assay type: organism-based; design: dose 40 mg/kg, route intraperitoneal; conditions: in vivo, 0 h
Rattus norvegicus [6] = test: Toxicity in anaesthetized-Wistar rat assessed as QRS ECG interval at 40 mg/kg, ip after 30 mins (reference value: 19.9 +/- 1.393 ms); assay type: organism-based; design: dose 40 mg/kg, route intraperitoneal; conditions: in vivo, 0.5 h
Rattus norvegicus [7] = test: Toxicity in anaesthetized-Wistar rat assessed as P-Q ECG interval at 40 mg/kg, ip measured immediately at 0 min (reference value: 52.4 +/- 0.927 ms); assay type: organism-based; design: dose 40 mg/kg, route intraperitoneal; conditions: in vivo, 0 h
Rattus norvegicus [8] = test: Toxicity in anaesthetized-Wistar rat assessed as QRS ECG interval at 40 mg/kg, ip after 15 mins (reference value: 18.9 +/- 1.563 ms); assay type: organism-based; design: dose 40 mg/kg, route intraperitoneal; conditions: in vivo, 0.25 h
Rattus norvegicus [9] = test: Toxicity in […] normotensive Wistar rat assessed as mean arterial pressure at 40 mg/kg, ip after 15 mins (reference value: 93.81 +/- 1.543 mmHg); assay type: organism-based, Artery; design: dose 40 mg/kg, route intraperitoneal; conditions: in vivo, 0.25 h
Rattus norvegicus [10] = test: Antiarrhythmic activity in barium chloride-induced Wistar rat assessed as increase in appearance time of arrhythmia at 40 mg/kg, ip administered 60 mins before barium chloride challenge (reference value: 129.4 +/- 4.373 sec); assay type: functional, Heart; conditions: route intraperitoneal
Rattus norvegicus [11] = test: Toxicity in anaesthetized-Wistar rat assessed as Q-T ECG interval at 40 mg/kg, ip after 60 mins (reference value: 79.7 +/- 0.965 ms); assay type: organism-based; design: dose 40 mg/kg, route intraperitoneal; conditions: in vivo, 1 h
Rattus norvegicus [12] = test: Toxicity in […] normotensive Wistar rat assessed as mean arterial pressure at 40 mg/kg, ip after 60 mins (reference value: 95.07 +/- 1.973 mmHg); assay type: organism-based, Artery; design: dose 40 mg/kg, route intraperitoneal; conditions: in vivo, 1 h
Rattus norvegicus [13] = test: Toxicity in anaesthetized-Wistar rat assessed as Q-T ECG interval at 40 mg/kg, ip after 30 mins (reference value: 78.3 +/- 0.860 ms); assay type: organism-based; design: dose 40 mg/kg, route intraperitoneal; conditions: in vivo, 0.5 h
Rattus norvegicus [14] = test: Toxicity in anesthetized-normotensive Wistar rat assessed as heart rate at 40 mg/kg, ip after 30 mins (reference value: 317.68 +/- 7.631 bpm); assay type: organism-based; design: dose 40 mg/kg, route intraperitoneal; conditions: in vivo, 0.5 h
Rattus norvegicus [15] = test: Toxicity in […] normotensive Wistar rat assessed as mean arterial pressure at 40 mg/kg, ip after 30 mins (reference value: 94.68 +/- 1.213 mmHg); assay type: organism-based, Artery; design: dose 40 mg/kg, route intraperitoneal; conditions: in vivo, 0.5 h
Rattus norvegicus [16] = test: Antihypertensive activity in Wistar rat assessed as mean arterial pressure at 40 mg/kg, ip measured immediately at 0 min (reference value: 194.08 +/- 1.962 mmHg); assay type: functional, Artery; conditions: route intraperitoneal
Rattus norvegicus [17] = test: Toxicity in anaesthetized-Wistar rat assessed as QRS ECG interval at 40 mg/kg, ip after 60 mins (reference value: 19.3 +/- 0.873 ms); assay type: organism-based; design: dose 40 mg/kg, route intraperitoneal; conditions: in vivo, 1 h
Rattus norvegicus [18] = test: Toxicity in anesthetized-normotensive Wistar rat assessed as heart rate at 40 mg/kg, ip measured immediately at 0 min (reference value: 316.62 +/- 9.643 bpm); assay type: organism-based; design: dose 40 mg/kg, route intraperitoneal; conditions: in vivo, 0 h
Rattus norvegicus [19] = test: Toxicity in […] normotensive Wistar rat assessed as mean arterial pressure at 40 mg/kg, ip after 45 mins (reference value: 94.83 +/- 0.943 mmHg); assay type: organism-based, Artery; design: dose 40 mg/kg, route intraperitoneal; conditions: in vivo, 0.75 h
Rattus norvegicus [20] = test: Toxicity in anaesthetized-Wistar rat assessed as Q-T ECG interval at 40 mg/kg, ip after 15 mins (reference value: 79.4 +/- 1.270 ms); assay type: organism-based; design: dose 40 mg/kg, route intraperitoneal; conditions: in vivo, 0.25 h
Rattus norvegicus [21] = test: Toxicity in anesthetized-normotensive Wistar rat assessed as heart rate at 40 mg/kg, ip after 60 mins (reference value: 314.96 +/- 9.442 bpm); assay type: organism-based; design: dose 40 mg/kg, route intraperitoneal; conditions: in vivo, 1 h
Rattus norvegicus [22] = test: Antiarrhythmic activity in barium chloride-induced Wistar rat assessed as increase in mortality time at 40 mg/kg, ip administered 60 mins before barium chloride challenge (reference value: 682.8 +/- 9.656 secs); assay type: functional, Heart; conditions: route intraperitoneal
Rattus norvegicus [23] = test: Toxicity in anaesthetized-Wistar rat assessed as QRS ECG interval at 40 mg/kg, ip measured immediately at 0 min (reference value: 19.6 +/- 1.142 ms); assay type: organism-based; design: dose 40 mg/kg, route intraperitoneal; conditions: in vivo, 0 h
Rattus norvegicus [24] = test: Antihypertensive activity in Wistar rat assessed as mean arterial pressure at 40 mg/kg, ip after 60 mins (reference value: 195.11 +/- 0.531 mmHg); assay type: functional, Artery; conditions: route intraperitoneal
Rattus norvegicus [25] = test: Toxicity in anesthetized-normotensive Wistar rat assessed as heart rate at 40 mg/kg, ip after 45 mins (reference value: 316.82 +/- 8.452 bpm); assay type: organism-based; design: dose 40 mg/kg, route intraperitoneal; conditions: in vivo, 0.75 h
Rattus norvegicus [26] = test: Toxicity in anesthetized-normotensive Wistar rat assessed as heart rate at 40 mg/kg, ip after 15 mins (reference value: 313.93 +/- 9.912 bpm); assay type: organism-based; design: dose 40 mg/kg, route intraperitoneal; conditions: in vivo, 0.25 h
Rattus norvegicus [27] = test: Antihypertensive activity in Wistar rat assessed as mean arterial pressure at 40 mg/kg, ip after 45 mins (reference value: 193.96 +/- 0.865 mmHg); assay type: functional, Artery; conditions: route intraperitoneal
Rattus norvegicus [28] = test: Antihypertensive activity in Wistar rat assessed as mean arterial pressure at 40 mg/kg, ip after 15 mins (reference value: 195.68 +/- 1.623 mmHg); assay type: functional, Artery; conditions: route intraperitoneal
Rattus norvegicus [29] = test: Toxicity in anaesthetized-Wistar rat assessed as P-Q ECG interval at 40 mg/kg, ip after 60 mins (reference value: […] +/- 0.924 ms); assay type: organism-based; design: dose 40 mg/kg, route intraperitoneal; conditions: in vivo, 1 h
Rattus norvegicus [30] = test: Toxicity in […] normotensive Wistar rat assessed as mean arterial pressure at 40 mg/kg, ip measured immediately at 0 min (reference value: 94.21 +/- 2.065 mmHg); assay type: organism-based, Artery; design: dose 40 mg/kg, route intraperitoneal; conditions: in vivo, 0 h
Rattus norvegicus [31] = test: Toxicity in anaesthetized-Wistar rat assessed as QRS ECG interval at 40 mg/kg, ip after 45 mins (reference value: 20.2 +/- 1.348 ms); assay type: organism-based; design: dose 40 mg/kg, route intraperitoneal; conditions: in vivo, 0.75 h

| SMILES | Activity (Rattus norvegicus [1]) [min] | Activity (Rattus norvegicus [2]) [min] | Activity (Rattus norvegicus [3]) [mmHg] | Activity (Rattus norvegicus [4]) [min] | Activity (Rattus norvegicus [5]) [min] | Activity (Rattus norvegicus [6]) [ms] | Activity (Rattus norvegicus [7]) [ms] | Activity (Rattus norvegicus [8]) [min] | Activity (Rattus norvegicus [9]) [mmHg] | Time (Rattus norvegicus [10]) [s] | Activity (Rattus norvegicus [11]) [ms] | Activity (Rattus norvegicus [12]) [mmHg] | Activity (Rattus norvegicus [13]) [min] | Activity (Rattus norvegicus [14]) [bpm] | Activity (Rattus norvegicus [15]) [mmHg] | Activity (Rattus norvegicus [16]) [mmHg] | Activity (Rattus norvegicus [17]) [min] | Activity (Rattus norvegicus [18]) [bpm] | Activity (Rattus norvegicus [19]) [mmHg] | Activity (Rattus norvegicus [20]) [min] | also measured |
| --- | --- | --- | --- | --- | --- | --- | --- | --- | --- | --- | --- | --- | --- | --- | --- | --- | --- | --- | --- | --- | --- |
| CCCCN(CCCC)CC(O)CN1C(=O)/C(=C\c2ccccc2)S/C1=N\c1ccccc1 (stereo not drawn) | 55 | 56.1 | 159.69 | 57.3 | 67 | 22 | 53.5 | 21.6 | 84.43 | 265.4 | 66.4 | 90.59 | 68.9 | 276.46 | 77.87 | 195.08 | 22.6 | 309.12 | 80.16 | 67.9 | Activity (Rattus norvegicus [21]): 301.69 bpm; Time (Rattus norvegicus [22]): 786.2 s; Activity (Rattus norvegicus [23]): 20.4 min; Activity (Rattus norvegicus [24]): 182.09 mmHg; Activity (Rattus norvegicus [25]): 283.5 bpm; Activity (Rattus norvegicus [26]): 297.25 bpm; Activity (Rattus norvegicus [27]): 163.37 mmHg; Activity (Rattus norvegicus [28]): 171.43 mmHg; Activity (Rattus norvegicus [29]): 54.3 min; Activity (Rattus norvegicus [30]): 95.56 mmHg; Activity (Rattus norvegicus [31]): 22.4 min |
| O=C1/C(=C\c2ccccc2)S/C(=N\c2ccccc2)N1CC(O)CN1CCOCC1 (stereo not drawn) | 50.2 | 50.9 | 168.61 | 51.3 | 74.3 | 23.8 | 49.9 | 23.2 | 82.61 | 313.5 | 74.2 | 71.43 | 73.2 | 293.54 | 73.87 | 195.43 | 23.7 | 315.15 | 62.69 | 74.9 | Activity (Rattus norvegicus [21]): 308.42 bpm; Time (Rattus norvegicus [22]): 1089.8 s; Activity (Rattus norvegicus [23]): 23.4 min; Activity (Rattus norvegicus [24]): 154.93 mmHg; Activity (Rattus norvegicus [25]): 294.42 bpm; Activity (Rattus norvegicus [26]): 304.65 bpm; Activity (Rattus norvegicus [27]): 131.61 mmHg; Activity (Rattus norvegicus [28]): 175.31 mmHg; Activity (Rattus norvegicus [29]): 52.7 min; Activity (Rattus norvegicus [30]): 92.99 mmHg; Activity (Rattus norvegicus [31]): 23.1 min |
| O=C1/C(=C\c2ccccc2)S/C(=N\c2ccccc2)N1CC(O)CN1CCCCC1 (stereo not drawn) | 51.7 | 51.9 | 134.16 | 50.6 | 72.7 | 21.9 | 52.2 | 21.5 | 82.63 | 279.3 | 71.8 | 76.12 | 73.3 | 268.74 | 72.76 | 194.76 | 22.6 | 308.43 | 64.69 | 72.9 | Activity (Rattus norvegicus [21]): 303.32 bpm; Time (Rattus norvegicus [22]): 886.9 s; Activity (Rattus norvegicus [23]): 20.2 min; Activity (Rattus norvegicus [24]): 166.84 mmHg; Activity (Rattus norvegicus [25]): 274.15 bpm; Activity (Rattus norvegicus [26]): 297.54 bpm; Activity (Rattus norvegicus [27]): 145.87 mmHg; Activity (Rattus norvegicus [28]): 165.33 mmHg; Activity (Rattus norvegicus [29]): 51.5 min; Activity (Rattus norvegicus [30]): 94.65 mmHg; Activity (Rattus norvegicus [31]): 22.8 min |
